From patent US7541366B2, “Pyrrolo[3,2-c]pyridine derivatives and processes for the preparation thereof” (YUHAN Corporation, priority 2004, dated 2009) come the findings set out here.

Where a name gives a salt, the structure may show the parent alone.

The target of the assay is T1, proton pump (H+/K+-ATPase) (Sus scrofa, UniProt P19156).
T1 construct: used as an enzyme source of the in vitro enzyme reaction assay of proton pump; from tissue; host or cells: hog gastric fundic mucosa; membrane vesicles, lyophilized
Description: Inhibitory effects on proton pump (H+/K+-ATPase) activity. Conditions: hog gastric vesicles, K+ stimulated H+/K+-ATPase activity, Pi at 620 nm, 30 minutes at 37° C. It counts as biochemical. How it is done:
1-1. Preparation of gastric proton pump vesicles
The hog fundic regions containing parietal and peptic cells were scraped with slide-glass. The collected cells were suspended in 10 ml of 0.25M sucrose buffer and homogenized using a tight-fitting Teflon-glass homogenizer. The homogenate was centrifuged for 35 min at 8,000 rpm and the pellet was discarded. The supernatant was further centrifuged for 75 min at 25,000 rpm. The resulting pellets were re-suspended in the sucrose buffer (10 ml), and then the suspension was laid onto discontinuous density gradients consisting of 0.25M sucrose buffer and isolation medium containing 9% Ficoll (w/w). After being centrifuged for 3 hours and 15 minutes at 100,000×g, the material at the interface of sucrose buffer and Ficoll solution was collected and then centrifuged for 40 minutes at 100,000×g. The resulting pellets were re-suspended in 1 ml of 5 mM Hepes/Tris buffer (pH 6.1). This material was lyophilized and stored at −70° C. and used as an enzyme source of the in vitro enzyme reaction assay of proton pump.
1-2. Measurement of inhibitory effects on proton pump (H^+/K^+-ATPase) activity
The inhibitory effects of the compounds of the present invention against proton pump activity were evaluated in 96-well plate. In this assay, the K^+specific H^+/K^+-ATPase activity was calculated based on the difference between the activity of H^+/K^30 -ATPase activity with K^30 and without K^30 ion. In 96-well plate, 1% dimethylsulfoxide (DMSO) in buffer was added to negative and positive control groups and the diluted compounds of the present invention in buffer were added to test group. All assays were performed in 100μl reaction volume at room temperature, and the hog gastric vesicle was kept in ice before use. At the beginning of the reaction, 10μl of reaction buffer containing 1% DMSO was added to the negative and positive control groups and to reaction buffer each concentration of compounds in the test group. Then lyophilized vesicle in 5mM Pipes/Tris buffer (pH 6.1) was pre-incubated in the presence of various concentrations of test compounds. After a 5 minute incubation, negative and positive buffers were respectively added to the previous reaction mixture. As the substrate, ATP was added to the reaction buffer, and incubated for 30 minutes at 37° C. Enzymatic activity was stopped by the addition of colorimetric reagent (2X malachite green, 1X ammonium molybdate, X polyvinyl alcohol, 2X H2O) and the amount of mono phosphate (Pi) in the reaction was measured at 620nm using the micro plate reader (Genios Pro, TECAN). The difference between the Pi production with K^+and without K^+is taken as K^+stimulated H^+/K^+-ATPase activity. The IC50s of test compounds were calculated from each % inhibition value of compounds using the method of Litchfield-Wilcoxon (J. Pharmacol. Exp. Ther. (1949) 96, 99).

T1 sequence (P19156 whole entry): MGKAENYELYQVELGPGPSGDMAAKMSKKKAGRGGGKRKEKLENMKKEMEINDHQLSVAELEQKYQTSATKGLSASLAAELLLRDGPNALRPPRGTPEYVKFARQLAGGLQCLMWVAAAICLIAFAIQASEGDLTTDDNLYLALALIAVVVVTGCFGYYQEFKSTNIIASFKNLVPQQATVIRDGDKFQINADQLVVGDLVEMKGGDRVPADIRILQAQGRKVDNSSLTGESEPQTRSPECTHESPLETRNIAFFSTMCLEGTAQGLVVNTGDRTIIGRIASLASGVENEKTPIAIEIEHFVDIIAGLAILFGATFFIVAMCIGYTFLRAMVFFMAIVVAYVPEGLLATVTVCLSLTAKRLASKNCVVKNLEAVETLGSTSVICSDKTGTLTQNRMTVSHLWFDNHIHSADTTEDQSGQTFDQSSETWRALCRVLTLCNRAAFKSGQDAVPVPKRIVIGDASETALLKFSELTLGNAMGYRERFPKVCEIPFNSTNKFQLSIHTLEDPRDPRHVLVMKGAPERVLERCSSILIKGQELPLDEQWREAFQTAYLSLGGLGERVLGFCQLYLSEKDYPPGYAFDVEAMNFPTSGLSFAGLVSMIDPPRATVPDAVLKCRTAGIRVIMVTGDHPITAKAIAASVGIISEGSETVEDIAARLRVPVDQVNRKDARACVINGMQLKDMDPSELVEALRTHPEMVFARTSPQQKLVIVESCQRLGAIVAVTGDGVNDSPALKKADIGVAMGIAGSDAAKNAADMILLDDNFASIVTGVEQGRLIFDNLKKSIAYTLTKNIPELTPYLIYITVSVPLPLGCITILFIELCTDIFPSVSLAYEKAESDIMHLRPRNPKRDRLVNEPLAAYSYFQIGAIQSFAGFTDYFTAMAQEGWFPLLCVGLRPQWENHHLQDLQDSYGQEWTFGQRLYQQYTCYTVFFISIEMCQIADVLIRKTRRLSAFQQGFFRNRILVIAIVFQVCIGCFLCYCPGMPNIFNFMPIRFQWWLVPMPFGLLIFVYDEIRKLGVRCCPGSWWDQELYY
T1 sequence (P18434 whole entry partner): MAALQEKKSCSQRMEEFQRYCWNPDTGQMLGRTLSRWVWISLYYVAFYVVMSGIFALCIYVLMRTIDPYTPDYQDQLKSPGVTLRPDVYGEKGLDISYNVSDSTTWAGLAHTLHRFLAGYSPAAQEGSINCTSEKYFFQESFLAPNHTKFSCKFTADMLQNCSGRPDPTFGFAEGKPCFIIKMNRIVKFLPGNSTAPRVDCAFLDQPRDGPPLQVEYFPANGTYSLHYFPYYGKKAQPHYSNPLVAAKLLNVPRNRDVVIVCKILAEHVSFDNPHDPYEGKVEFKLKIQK

The molecule `C=CCn1c(C)c(C)c2cncc(OCc3ccc(F)cc3)c21` [Example 5, 1-allyl-7-(4-fluorobenzyloxy)-2,3-dimethyl-1H-pyrrolo[3,2-c]pyridine hydrochloride] showed an IC50 of 280 nM.

The molecule `Cc1c(C)n(CC2OCCO2)c2c(N3CCc4ccccc4C3)cncc12` [Example 34, 1-(1,3-dioxolan-2-ylmethyl)-7-(1,2,3,4-tetrahydroisoquinolin-2-yl)-2,3-dimethyl-1H -pyrrolo[3,2-c]pyridine hydrochloride] displayed an IC50 of 190 nM.

Regarding `Cc1c(C)n(Cc2ccc(F)cc2)c2c(N3CCc4ccccc4C3)cncc12` [Example 28, 2-[1-(4-fluorobenzyl)-2,3-dimethyl-1H-pyrrolo[3,2-c]pyridin-7-yl]-1,2,3,4-tetrahydroisoquinoline hydrochloride], half-maximal inhibition (IC50) was put at 190 nM.

Molecule `Cc1c(C)n(Cc2ccc(C(F)(F)F)cc2)c2c(OCc3ccc(F)cc3)cncc12` [Example 10, 7-(4-fluorobenzyloxy)-2,3-dimethyl-1-(4-trifluoromethylbenzyl)-1H -pyrrolo[3,2-c]pyridine hydrochloride] displayed an IC50 of 340 nM.

Consider `Cc1c(C)n(Cc2ccc(F)cc2)c2c(OCc3ccc(F)cc3)cncc12` [Example 9, 1-(4-fluorobenzyl)-7-(4-fluorobenzyloxy)-2,3-dimethyl-1H -pyrrolo[3,2-c]pyridine hydrochloride], for which the half-maximal inhibitory concentration (IC50) was determined as 50 nM.

`Cc1c(C)n(CC(C)C)c2c(OCc3ccc(F)cc3)cncc12` [Example 11, 7-(4-fluorobenzyloxy)-1-isobutyl-2,3-dimethyl-1H-pyrrolo[3,2-c]pyridine hydrochloride] displayed an IC50 of 10 nM.

`Cc1c(C)n(CC2CC2)c2c(N3CCc4ccccc4C3)cncc12` [Example 39, 2-(1-cyclopropylmethyl-2,3-dimethyl-1H-pyrrolo[3,2-c]pyridin-7-yl)-1,2,3,4-tetrahydroisoquinoline hydrochloride] gave an IC50 of 240 nM.

`Cc1c(C)n(Cc2ccccc2)c2c(N3CCc4ccccc4C3)cncc12` [Example 35, 1-benzyl-7-(1,2,3,4-tetrahydroisoquinolin-2-yl)-2,3-dimethyl-1H -pyrrolo[3,2-c]pyridine hydrochloride] had an IC50 of 60 nM.

As for `COC(=O)c1ccc(Cn2c(C)c(C)c3cncc(N4CCc5ccccc5C4)c32)cc1` [Example 29, 1-(4-methoxycarbonylbenzyl)-7-(1,2,3,4-tetrahydroisoquinolin-2-yl)-2,3-dimethyl-1H-pyrrolo[3,2-c]pyridine hydrochloride], it took 320 nM to reach half-maximal inhibition (IC50).

As to `Cc1c(C)n(CC2CCC2)c2c(N3CCc4ccccc4C3)cncc12` [Example 37, 1-cyclobutylmethyl-7-(1,2,3,4-tetrahydroisoquinolin-2-yl)-2,3-dimethyl-1H -pyrrolo[3,2-c]pyridine hydrochloride], the midpoint of inhibition, the IC50, lay at 750 nM.

As to `Cc1c(C)n(Cc2ccc3ccccc3c2)c2c(N3CCc4ccccc4C3)cncc12` [Example 32, 1-(2-naphthylmethyl)-7-(1,2,3,4-tetrahydroisoquinolin-2-yl)-2,3-dimethyl-1H -pyrrolo[3,2-c]pyridine hydrochloride], the IC50 stood at 290 nM.

`Cc1c(C)n(Cc2cccc(C#N)c2)c2c(N3CCc4ccccc4C3)cncc12` [Example 41, 3-[7-(3,4-dihydro-1H-isoquinolin-2-yl)-2,3-dimethylpyrrolo[3,2-c]pyridin-1-ylmethyl]-benzonitrile hydrochloride] returned an IC50 of 1810 nM.

Regarding `Cc1c(C)n(CC2CC2)c2c(OCc3ccc(F)cc3)cncc12` [Example 4, 1-cyclopropylmethyl-7-(4-fluorobenzyloxy)-2,3-dimethyl-1H -pyrrolo[3,2-c]pyridine hydrochloride], half-maximal inhibition (IC50) was put at 10 nM.

The molecule `COc1cccc(Cn2c(C)c(C)c3cncc(OCc4ccc(F)cc4)c32)c1` [Example 7, 7-(4-fluorobenzyloxy)-1-(3-methoxybenzyl)-2,3-dimethyl-1H -pyrrolo[3,2-c]pyridine hydrochloride] registered an IC50 of 60 nM.

In turn, `Cc1c(C)n(Cc2ccccc2Cl)c2c(OCc3ccc(F)cc3)cncc12` [Example 14, 1-(2-chlorobenzyl)-7-(4-fluorobenzyloxy)-2,3-dimethyl-1H -pyrrolo[3,2-c]pyridine hydrochloride] registered an IC50 of 460 nM.

Molecule `Cc1c(C)n(CC(C)C)c2c(N3CCc4ccccc4C3)cncc12` [Example 36, 1-isobutyl-7-(1,2,3,4-tetrahydroisoquinolin-2-yl)-2,3-dimethyl-1H -pyrrolo[3,2-c]pyridine hydrochloride] registered an IC50 of 310 nM.

Regarding `Cc1c(C)n(Cc2ccccc2F)c2c(OCc3ccc(F)cc3)cncc12` [Example 15, 1-(2-fluorobenzyl)-7-(4-fluorobenzyloxy)-2,3-dimethyl-1H -pyrrolo[3,2-c]pyridine hydrochloride], the midpoint of inhibition, the IC50, lay at 190 nM.

`Cc1c(C)n(Cc2cccc(F)c2)c2c(OCc3ccc(F)cc3)cncc12` [Example 6, 1-(3-fluorobenzyl)-7-(4-fluorobenzyloxy)-2,3-dimethyl-1H -pyrrolo[3,2-c]pyridine hydrochloride] yielded an IC50 of 30 nM.

The molecule `CCn1c(C)c(C)c2cncc(N3CCc4ccccc4C3)c21` [Example 40, 2-(1-ethyl-2,3-dimethyl-1H-pyrrolo[3,2-c]pyridin-7-yl)-1,2,3,4-tetrahydroisoquinoline hydrochloride] displayed a 50% inhibitory concentration (IC50) of 30 nM.

As to `CCn1c(C)c(C)c2cncc(OCc3ccc(F)cc3)c21` [Example 3, 1-ethyl-7-(4-fluorobenzyloxy)-2,3-dimethyl-1H-pyrrolo[3,2-c]pyridine hydrochloride], inhibition was half-maximal at 40 nM (IC50).

Take `C=COCCn1c(C)c(C)c2cncc(N3CCc4ccccc4C3)c21` [Example 33, 1-(2-vinyloxyethyl)-7-(1,2,3,4-tetrahydroisoquinolin-2-yl)-2,3-dimethyl-1H -pyrrolo[3,2-c]pyridine hydrochloride]: the IC50 was 410 nM.

Turning to `Cc1[nH]c2c(OCc3ccc(F)cc3)cncc2c1C` [Example 1, 7-(4-fluorobenzyloxy)-2,3-dimethyl-1H-pyrrolo[3,2-c]pyridine hydrochloride], the IC50 turned out to be 120 nM.

`Cc1[nH]c2c(N3CCc4ccccc4C3)cncc2c1C` [Example 27, 2-(2,3-dimethyl-1H-pyrrolo[3,2-c]pyridin-7-yl)-1,2,3,4-tetrahydroisoquinoline hydrochloride] had an IC50 of 460 nM.

`Cc1ccc(Cn2c(C)c(C)c3cncc(OCc4ccc(F)cc4)c32)cc1` [Example 8, 7-(4-fluorobenzyloxy)-2,3-dimethyl-1-(4-methylbenzyl)-1H -pyrrolo[3,2-c]pyridine hydrochloride] gave an IC50 of 60 nM.

In turn, `COCCn1c(C)c(C)c2cncc(N3CCc4ccccc4C3)c21` [Example 31, 1-(2-methoxyethyl)-7-(1,2,3,4-tetrahydroisoquinolin-2-yl)-2,3-dimethyl-1H -pyrrolo[3,2-c]pyridine hydrochloride] gave an IC50 of 170 nM.

Molecule `Cc1c(C)n(Cc2ccc3c(c2)OCCO3)c2c(N3CCc4ccccc4C3)cncc12` [Example 30, 2-[1-(2,3-dihydrobenzo[1,4]dioxin-6-ylmethyl)-2,3-dimethyl-1H-pyrrolo[3,2-c]pyridin-7-yl]-1,2,3,4-tetrahydroisoquinoline hydrochloride] yielded an IC50 of 170 nM.

A word on the IC50: it is the midpoint of a concentration-inhibition curve.
